A short description of series [1]: Forcing drying conditions (60° C. at <20 mm Hg). Particulars: 60° C. at <20 mm Hg for 8 days. The class given is physicochemical.
Series [2] is described as follows: Thermodynamic aqueous solubility. The class given is physicochemical. Conditions: water, equilibrated at 25° C. for 24 hours, HPLC. The procedure:
Aqueous solubility was determined by suspending sufficient compound in water to give a maximum final concentration of ≥20 mg·ml^−1 of the parent free-form of the compound. The suspension was equilibrated at 25° C. for 24 hours then the pH was measured. The suspension was then filtered through a glass fibre C filter into a 96 well plate unless stated otherwise. The filtrate was then diluted by a factor of 101. Quantitation was by HPLC with reference to a standard solution of approximately 0.1 mg·ml^−1 in DMSO. Different volumes of the standard, diluted and undiluted sample solutions were injected. The solubility was calculated using the peak areas determined by integration of the peak found at the same retention time as the principal peak in the standard injection.
Analysis was performed on an Agilent HP1100 series system equipped with a diode array detector and using ChemStation software vB.02.01-SR1.

Series [3] can be described thus: Storage stability at 40° C. and 75% RH (XRPD). The class given is physicochemical. Particulars: a week.
Series [4] is described as follows: Gravimetric vapour sorption (GVS). Conditions: for Solid form stability under the GVS conditions (XRPD after GVS): 25° C., 0-90% RH. The class given is physicochemical. The procedure:
Sorption isotherms were obtained using a SMS DVS Intrinsic moisture sorption analyser, controlled by SMS Analysis Suite software. The sample temperature was maintained at 25° C. by the instrument controls. The humidity was controlled by mixing streams of dry and wet nitrogen, with a total flow rate of 200 ml min^−1. The relative humidity was measured by a calibrated Rotronic probe (dynamic range of 1.0-100% RH), located near the sample. The weight change, (mass relaxation) of the sample as a function of % RH was constantly monitored by the microbalance (accuracy ±0.005 mg). Typically 5-20 mg of sample was placed in a tared mesh stainless steel basket under ambient conditions. The sample was loaded and unloaded at 40% RH and 25° C. (typical room conditions). A moisture sorption isotherm was performed as outlined below (2 scans giving 1 complete cycle). The standard isotherm was performed at 25° C. at 10% RH intervals over a 0.5-90% RH range. [table] The sample was recovered after completion of the isotherm and re-analyzed by XRPD.

The nature of series [5]: Storage stability at 25° C. and 92% RH (XRPD). Conditions: for Solid form stability on storage: 92% RH/25° C., on glass slide, after a week. The class given is physicochemical. How it is done:
A sample of Form E was laid on a glass slide then placed in a box maintained at 92% RH/25° C.

Series [6] in a line: Stability under ambient conditions. Conditions: within a month. The class given is physicochemical.
A further series addresses T1, T877A AR mutant (Homo sapiens, UniProt P10275, T878A).
T1 sequence (P10275 1-920 T878A): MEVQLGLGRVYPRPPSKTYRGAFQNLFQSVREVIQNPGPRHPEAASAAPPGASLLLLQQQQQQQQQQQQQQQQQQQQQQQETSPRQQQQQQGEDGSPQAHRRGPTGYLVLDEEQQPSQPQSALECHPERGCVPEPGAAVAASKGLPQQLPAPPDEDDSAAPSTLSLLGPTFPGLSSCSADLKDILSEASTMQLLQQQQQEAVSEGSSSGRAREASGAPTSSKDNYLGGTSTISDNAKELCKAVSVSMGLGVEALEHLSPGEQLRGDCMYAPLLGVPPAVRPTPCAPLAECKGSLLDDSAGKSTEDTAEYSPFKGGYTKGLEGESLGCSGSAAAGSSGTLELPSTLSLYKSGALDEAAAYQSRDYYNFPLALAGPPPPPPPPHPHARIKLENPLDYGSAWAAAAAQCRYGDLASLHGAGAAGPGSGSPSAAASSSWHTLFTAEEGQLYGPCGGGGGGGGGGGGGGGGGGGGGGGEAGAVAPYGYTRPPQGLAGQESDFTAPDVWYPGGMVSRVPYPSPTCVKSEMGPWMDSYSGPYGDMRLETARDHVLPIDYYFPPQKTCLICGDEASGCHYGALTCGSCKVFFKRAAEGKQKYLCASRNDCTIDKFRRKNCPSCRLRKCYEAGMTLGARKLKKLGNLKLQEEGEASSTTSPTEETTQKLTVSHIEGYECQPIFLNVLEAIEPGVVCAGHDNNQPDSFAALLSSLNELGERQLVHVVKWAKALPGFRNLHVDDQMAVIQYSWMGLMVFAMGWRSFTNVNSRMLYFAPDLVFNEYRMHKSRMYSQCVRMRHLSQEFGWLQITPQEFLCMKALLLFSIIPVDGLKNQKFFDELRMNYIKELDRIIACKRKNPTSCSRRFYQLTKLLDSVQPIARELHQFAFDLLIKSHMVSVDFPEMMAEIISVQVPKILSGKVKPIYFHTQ
Conditions: cited from earlier work.

Regarding `CNC(=O)c1ccc(N2C(=S)N(c3cnc(C#N)c(C(F)(F)F)c3)C(=O)C23CCC3)cc1F` [Form A, 4-[7-(6-cyano-5-trifluoromethylpyridin-3-yl)-8-oxo-6-thioxo-5,7-diazaspiro[3.4]oct-5-yl]-2-fluoro-N-methylbenzamide], the “Behaviour under forcing conditions” value in series [1] was “lost ethanol, the XRPD pattern of the material stayed the same”. For the same compound, the “Aqueous Solubility (mg/mL)” value in series [2] is listed as “about 0.01 mg/mL”. Moreover, the “Solid form stability on storage” value in series [3] is reported as “stable”. Regarding `CNC(=O)c1ccc(N2C(=S)N(c3cnc(C#N)c(C(F)(F)F)c3)C(=O)C23CCC3)cc1F` [Form B, 4-[7-(6-cyano-5-trifluoromethylpyridin-3-yl)-8-oxo-6-thioxo-5,7-diazaspiro[3.4]oct-5-yl]-2-fluoro-N-methylbenzamide], the “Solid form stability under the GVS conditions (XRPD after GVS)” value in series [4] is recorded as “stable”. Besides, the Hygroscopicity entry in series [4] (GVS at 25° C.) was “not hygroscopic”. Further, the Uptake of water result in series [4] (GVS isotherm at 25° C., at 90% RH) is recorded as “less than 0.2%”. Also, the “Aqueous Solubility (mg/mL)” value in series [2] is “about 0.004 mg/mL”. In addition, in series [5] (25° C. and 92% RH for 12 days), the “Solid form stability on storage (XRPD before and after)” value is “stable”. Also, the “Solid form stability on storage” value in series [3] is “stable”. Consider `CNC(=O)c1ccc(N2C(=S)N(c3cnc(C#N)c(C(F)(F)F)c3)C(=O)C23CCC3)cc1F` [Form C, 4-[7-(6-cyano-5-trifluoromethylpyridin-3-yl)-8-oxo-6-thioxo-5,7-diazaspiro[3.4]oct-5-yl]-2-fluoro-N-methylbenzamide], for which the “Solid form stability on storage” value in series [3] is recorded as “stable”.

On to `CNC(=O)c1ccc(N2C(=S)N(c3cnc(C#N)c(C(F)(F)F)c3)C(=O)C23CCC3)cc1F` [Form D, 4-[7-(6-cyano-5-trifluoromethylpyridin-3-yl)-8-oxo-6-thioxo-5,7-diazaspiro[3.4]oct-5-yl]-2-fluoro-N-methylbenzamide], for which the “Solid form stability on storage” value in series [3] is on record as “stable”. For the compound `CNC(=O)c1ccc(N2C(=S)N(c3cnc(C#N)c(C(F)(F)F)c3)C(=O)C23CCC3)cc1F` [Form E, 4-[7-(6-cyano-5-trifluoromethylpyridin-3-yl)-8-oxo-6-thioxo-5,7-diazaspiro[3.4]oct-5-yl]-2-fluoro-N-methylbenzamide], in series [4], the “Solid form stability under the GVS conditions (XRPD after GVS)” value is listed as “transformed to Form A”. In addition, the “Solid form stability on storage” value is “transformed to Form A and a small amount of Form B” in series [5]; “transformed to Form A” in series [3].

As for `CNC(=O)c1ccc(N2C(=S)N(c3cnc(C#N)c(C(F)(F)F)c3)C(=O)C23CCC3)cc1F` [Form F, 4-[7-(6-cyano-5-trifluoromethylpyridin-3-yl)-8-oxo-6-thioxo-5,7-diazaspiro[3.4]oct-5-yl]-2-fluoro-N-methylbenzamide], the “Solid form stability under ambient conditions” value in series [6] is recorded as “transformed to Form A”. Further, in series [3], the “Solid form stability on storage” value was “transformed to Form A”. In the case of `CNC(=O)c1ccc(N2C(=S)N(c3cnc(C#N)c(C(F)(F)F)c3)C(=O)C23CCC3)cc1F` [Form G, 4-[7-(6-cyano-5-trifluoromethylpyridin-3-yl)-8-oxo-6-thioxo-5,7-diazaspiro[3.4]oct-5-yl]-2-fluoro-N-methylbenzamide], the “Solid form stability on storage” value in series [3] was “stable”. Still for that read-out and setting: in the case of `CNC(=O)c1ccc(N2C(=S)N(c3cnc(C#N)c(C(F)(F)F)c3)C(=O)C23CCC3)cc1F` [Form H, 4-[7-(6-cyano-5-trifluoromethylpyridin-3-yl)-8-oxo-6-thioxo-5,7-diazaspiro[3.4]oct-5-yl]-2-fluoro-N-methylbenzamide] it was “stable”. In the case of `CNC(=O)c1ccc(N2C(=S)N(c3cnc(C#N)c(C(F)(F)F)c3)C(=O)C23CCC3)cc1F` [Form I, 4-[7-(6-cyano-5-trifluoromethylpyridin-3-yl)-8-oxo-6-thioxo-5,7-diazaspiro[3.4]oct-5-yl]-2-fluoro-N-methylbenzamide], in series [5], the “Solid form stability on storage” value was “transformed to Form B”. In the case of `CNC(=O)c1ccc(N2C(=S)N(c3cnc(C#N)c(C(F)(F)F)c3)C(=O)C23CCC3)cc1F` [Form J, 4-[7-(6-cyano-5-trifluoromethylpyridin-3-yl)-8-oxo-6-thioxo-5,7-diazaspiro[3.4]oct-5-yl]-2-fluoro-N-methylbenzamide], the “Solid form stability on storage” value in series [5] is recorded as “transformed to Form B”. On to `CC(C)(O)C(=O)Nc1ccc([N+](=O)[O-])c(C(F)(F)F)c1` [hydroxyflutamide], for which the “Activity in T877A AR mutant” value at T877A AR mutant is listed as “act as AR agonists”.

These data come from patent publication US12018008B2, “Crystalline forms of an androgen receptor modulator” (Aragon Pharmaceuticals, Inc., priority 2012, dated 2024).
